Data taken from patent EP1057484A1, “CELL DEATH INHIBITORS” (priority 1998, dated 1999).

These compounds were tested on cerebellar granule cells (assay: Test Example 11: SNP-induced death of cerebellar granule cells). Conditions: Rattus norvegicus; 10 µM added prior to SNP (1.5 µM); observation after 12 hours; read-out: cells alive.
Assay type: cell-based, rats

SMILES | viability at 10 µM [%]
CN1C(=O)C(c2c[nH]c3ccccc23)=C(c2cn(CCCN)c3ccccc23)C1=O [Compound 19] | > 95

Each compound was assayed on cerebellar granule cells (assay: Test Example 10: hydrogen peroxide-induced death of cerebellar granule cells). Conditions: Rattus norvegicus; 10 µM added prior to hydrogen peroxide (10 µM); observation after 12 hours; read-out: cells alive.
Assay type: cell-based, rats
Experimental: According to a known method (A Dissection and Tissue Culture Manual of the Nervous System, p. 211, 1989, Alan R, Liss, Inc.), cerebellar granule cells were isolated from the cerebellum of 7 days old rats and cultured. Namely, after conducting isolation procedures described in the above literature, the resulting cells were resuspended in DMEM containing 10% fetal bovine serum, 25 mM KCl and 2 mM glutamine, and seeded in poly-lysine coated plates. After the cells were cultured in a CO2 incubator for 48 hours according to a conventional method, cytosine-1-β-D(+)-arabinofuranoside (Ara-C) (10 µM) was added thereto, and the cell was continued to culture. The following experiments were conducted with the cells of 7 to 14 days old from the start day of the culture, the cells having completed neurite extension sufficiently. […] Furthermore, experiments were conducted by increasing a concentration of hydrogen peroxide to 300 µM. In the cases that Test Compound 18 (10 µM), Test Compound 19 (10 µM), or Test Compound 20 (10 µM) were added, about 90%, 90%, and 70% of the cells were alive, respectively, on observations after 16 hours.

SMILES | viability at 10 µM [%]
CN1C(=O)C(c2c[nH]c3ccccc23)=C(c2cn(CCCN)c3ccccc23)C1=O [Compound 19] | > 95

Same assay, conditions: Rattus norvegicus; 10 µM; hydrogen peroxide 300 µM; observation after 16 hours; read-out: cells alive

SMILES | viability at 10 µM [%]
CN1C(=O)C(c2c[nH]c3ccccc23)=C(c2cn(CCCN)c3ccccc23)C1=O [Compound 19] | ~90

The compounds below were run on erythrocytes (assay: Test Example 13: hydrogen peroxide-induced death of erythrocytes). Conditions: Homo sapiens, Erythrocyte; 20 µM added prior to hydrogen peroxide (300 µM); observation after 24 hours; read-out: ratios of dead erythrocytes (dark ghost cells).
Assay type: cell-based
Experimental: After human blood (2 mL) was centrifuged at 1000 rpm for 5 min, the resulting cell pellets containing erythrocytes were washed three times with a DMEM medium and the cells were resuspended in the same medium (15 mL) (about 5 × 10^8 cells/mL). Ten µL of this suspension was added with 10% FCS/DMEM (10 mL), and the cells were plated in 48 well plates (500 µL/well). When hydrogen peroxide (300 µM) was added to the erythrocyte culture solution and the cells were cultured for 24 hours, all erythrocytes were dead on observations under a light microscopy (all erythrocytes were subjected to shape changes from a bright, round and concave shape into a dark hemolytic ghost through multiple shape changes). On the other hand, Test Compound 14 (30 µM), Test Compound 18 (10 µM), Test Compound 19 (20 µM) or Test Compound 20 (20 µM) was added prior to the hydrogen peroxide addition.

SMILES | cytotoxicity at 20 µM [%]
CN1C(=O)C(c2c[nH]c3ccccc23)=C(c2cn(CCCN)c3ccccc23)C1=O [Compound 19] | 10

What follows are compounds tested on Porcine ovarian granulosa cells (POGC) (assay: Test Example 1: inhibition of SNP-induced apoptosis of porcine ovarian granulosa cells). Conditions: Sus scrofa; for complete inhibition of apoptosis; SNP 0.5 mM; cells observed after 48 hours; read-out: Minimum effective concentration.
Assay type: cell-based
Excerpt: Porcine ovarian granulosa cells (POGC) were isolated from porcine ovaries and cultured following to a known method (Endocrinology, Vol. 136, p. 3470, 1995). Namely, porcine ovaries were rinsed with PBS buffer, and POGC were collected by aspiration from antral follicles with a syringe. Cell fraction was recovered as a precipitate by centrifugation of the suspension. The operation of suspending the cell fraction into PBS buffer and subjecting the resulting suspension to centrifugation was repeated three times to wash the cells. The POGC obtained as a precipitate were suspended again into a culture medium (DMEM containing 10% fetal bovine serum) and cell clumps were disrupted by pipetting. The cell suspension was passed through a mesh to remove contaminating tissue fragments, and then pipetted in 24-well plates for cell culture. The cell suspension was cultured for 2 days in a CO2 incubator according to a conventional procedure (37°C, 5% CO2). Then, the medium was refreshed to remove floating cells and the culture was continued for further 2 to 3 days until the cells reached subconfluency (0.7 to 2 × 10^5 cell/well). After the attaching cells were washed with serum-free medium, they were cultured in a serum-free DMEM (containing 5 µg/mL of transferrin, and 40 ng/mL of hydrocortisone, 4 mg/mL of bovine serum albumin (BSA), 100 nM androstendione).
The cell death was also confirmed by MTT assay. […] The results are shown in Table 1 where a minimum effective concentration of each compound for complete inhibition of apoptosis is described.

SMILES | minimal effective concentration [µM]
CN1C(=O)C(Br)=C(c2c[nH]c3ccc(Cl)cc23)C1=O [Compound 5] | 15
Cc1ccc2c(c1)c(C1=C(Br)C(=O)N(C)C1=O)cn2C(=O)OC(C)(C)C [Compound 6] | 3
CN1C(=O)C(Br)=C(c2cn(C(=O)OC(C)(C)C)c3ccccc23)C1=O [Compound 2] | 10
CN1C(=O)C(Br)=C(c2cn(C(=O)OC(C)(C)C)c3ccc(Cl)cc23)C1=O [Compound 8] | 7
Cc1cccc2c(C3=C(Br)C(=O)N(C)C3=O)c[nH]c12 [Compound 4] | 10
Cc1ccc2[nH]cc(C3=C(Br)C(=O)N(C)C3=O)c2c1 [Compound 3] | 3
Cc1cccc2c(C3=C(Br)C(=O)N(C)C3=O)cn(C(=O)OC(C)(C)C)c12 [Compound 7] | 7

Same assay, conditions: Sus scrofa; for complete inhibition of apoptosis; SNP 0.5 mM; judged at 18 hours after SNP treatment; read-out: Minimum effective concentration

SMILES | minimal effective concentration [µM]
CN1C(=O)C(Br)=C(c2cn(C)c3ccccc23)C1=O [Compound 9, 2-bromo-3-(1-methyl-1H-indol-3-yl)-N-methylmaleimide] | 15
CN1C(=O)C(Br)=C(c2c[nH]c3ccccc23)C1=O [Compound 1, 2-bromo-3-(1H-indol-3-yl)-N-methylmaleimide] | 15

Same assay, conditions: Sus scrofa; for complete inhibition of apoptosis; SNP 0.5 mM; judged at 35 hours after SNP treatment; read-out: Minimum effective concentration

SMILES | minimal effective concentration [µM]
CCCCCCCn1cc(C2=C(Br)C(=O)N(C)C2=O)c2ccccc21 [Compound 10] | 3

The compounds below were run on Porcine Ovarian Granulosa Cells (assay: Test Example 7: inhibition of SNP-induced apoptosis of undifferentiated POGC). Conditions: Sus scrofa; for complete inhibition of apoptosis; SNP 0.5 mM; cells observed after 48 hours; read-out: Minimum effective concentration.
Assay type: cell-based

SMILES | minimal effective concentration [µM]
CN1C(=O)C(c2c[nH]c3ccccc23)=C(c2cn(CCCNC(=O)c3ccccc3)c3ccccc23)C1=O [Compound 21] | 7
CN1C(=O)C(c2c[nH]c3ccccc23)C(c2c[nH]c3ccccc23)C1=O (stereo not drawn) [Compound 30] | 10
O=C1NC(=O)C(c2c[nH]c3ccccc23)=C1c1c[nH]c2ccccc12 [Compound 13] | 5
CN1C(=O)C(c2c[nH]c3ccccc23)=C(c2c[nH]c3ccc(Cl)cc23)C1=O [Compound 24] | 3
CCCN1C(=O)C(c2c[nH]c3ccccc23)=C(c2c[nH]c3ccccc23)C1=O [Compound 15] | 3
N=C(N)SCCCn1cc(C2=C(c3c[nH]c4ccccc34)C(=O)NC2=O)c2ccccc21 [Compound 27] | 1
CN1C(=O)C(c2c[nH]c3ccccc23)=C(c2c[nH]c3ccccc23)C1O (stereo not drawn) [Compound 16] | 5
CN1C(=O)C(c2c[nH]c3ccccc23)=C(c2cn(C(=O)OC(C)(C)C)c3ccccc23)C1=O [Compound 22] | 5
Cn1cc(C2=C(c3cn(CCCN)c4ccccc34)C(=O)NC2=O)c2ccccc21 [Compound 26] | 1
O=C1C(c2c[nH]c3ccccc23)=C(c2c[nH]c3ccccc23)C(=O)N1O [Compound 12] | 15
CN1C(=O)C(c2c[nH]c3ccccc23)=C(c2cn(CCCN)c3ccccc23)C1=O [Compound 19] | 0.7
CN1C(=O)C(c2cn(C(=O)OC(C)(C)C)c3ccccc23)=C(c2cn(C(=O)OC(C)(C)C)c3ccccc23)C1=O [Compound 23] | 5

Same assay, conditions: Sus scrofa; for complete inhibition of apoptosis; SNP 0.5 mM; judged at 18 hours after SNP treatment; read-out: Minimum effective concentration

SMILES | minimal effective concentration [µM]
COc1cccc2[nH]cc(C3=C(c4c[nH]c5cccc(OC)c45)C(=O)N(C)C3=O)c12 [Compound 45] | 3
CN1C(=O)C(c2c[nH]c3ccccc23)C(c2cn(CCCN)c3ccccc23)C1=O (stereo not drawn) [Compound 33] | 10
O=C1C(c2c[nH]c3ccccc23)=C(c2c[nH]c3ccccc23)C(=O)N1Cc1ccccc1 [Compound 49] | 1
CN1C(=O)C(c2c[nH]c3ccc(Br)cc23)=C(c2c[nH]c3ccc(Br)cc23)C1=O [Compound 42] | 1
Cc1cccc2c(C3=C(c4c[nH]c5ccccc45)C(=O)N(C)C3=O)c[nH]c12 [Compound 39] | 3
Cc1ccc2[nH]cc(C3=C(c4c[nH]c5ccc(C)cc45)C(=O)N(C)C3=O)c2c1 [Compound 40] | 1
CN1C(=O)C(c2cn(C)c3ccccc23)=C(c2cn(C)c3ccccc23)C1=O [Compound 36] | 10
c1ccc(N2CC(c3c[nH]c4ccccc34)C(c3c[nH]c4ccccc34)C2)cc1 (stereo not drawn) [Compound 34] | 0.3
O=C1C(c2c[nH]c3ccccc23)=C(c2c[nH]c3ccccc23)C(=O)N1c1ccccc1 [Compound 48] | 1
CN1C(=O)C(c2c[nH]c3ccc(F)cc23)=C(c2c[nH]c3ccc(F)cc23)C1=O [Compound 41] | 10
CN(C)CC1CCn2c(c(C3=C(c4cn(C)c5ccccc45)C(=O)NC3=O)c3ccccc32)C1 (stereo not drawn) [Compound 29] | 1
CN1CCCC1CCn1cc(C2=C(c3c[nH]c4ccccc34)C(=O)NC2=O)c2ccccc21 (stereo not drawn) [Compound 28] | 3
Cc1[nH]c2ccccc2c1C1=C(c2c[nH]c3ccccc23)C(=O)N(C)C1=O [Compound 46] | 10
CN1C(=O)C(c2c[nH]c3ccccc23)=C(c2cn(C)c3ccccc23)C1=O [Compound 35] | 10
Cc1ccc2c(C3=C(c4c[nH]c5cc(C)ccc45)C(=O)N(C)C3=O)c[nH]c2c1 [Compound 38] | 0.3
COc1ccc2[nH]cc(C3=C(c4c[nH]c5ccc(OC)cc45)C(=O)N(C)C3=O)c2c1 [Compound 44] | 1
CN(C)CCCn1cc(C2=C(c3cn(CCCN(C)C)c4ccccc34)C(=O)N(C)C2=O)c2ccccc21 [Compound 37] | 10
Cc1[nH]c2ccccc2c1C1=C(c2c(C)[nH]c3ccccc23)C(=O)N(C)C1=O [Compound 47] | 10
CN1C(=O)C(c2c[nH]c3ccccc23)=C(c2c[nH]c3ccc(Cl)cc23)C1=O [Compound 43] | 3

Same assay, conditions: Sus scrofa; for complete inhibition of apoptosis; SNP 0.5 mM; judged at 30 hours after SNP treatment; read-out: Minimum effective concentration

SMILES | minimal effective concentration [µM]
O=C1OC(=O)C(c2c[nH]c3ccccc23)=C1c1c[nH]c2ccccc12 [Compound 11] | 10
NCCCn1cc(C2=C(c3c[nH]c4ccccc34)C(=O)NC2=O)c2ccccc21 [Compound 17] | 3
CCN(CC)c1ccc2c(-c3ccc(S(=O)(=O)NCCCn4cc(C5=C(c6cn(C)c7ccccc67)C(=O)NC5=O)c5ccccc54)cc3S(=O)(=O)[O-])c3ccc(=[N+](CC)CC)cc-3oc2c1 [Compound 31] | 3

What follows are compounds tested on 4B2 cells (assay: Test Example 9: SNP-induced apoptosis of 4B2 granulosa cell line). Conditions: Mus musculus; 10 µM added prior to SNP (0.5 mM); observation after 24 hours; read-out: cells alive.
Assay type: cell-based
Experimental: Mouse granulosa cells were transfected with SV40 T antigen and cDNA of steroidogenic factor-1 (SF-1/Ad4BP) to establish a cell line, named 4B2. The cell secretes progesterone in response to protein kinase-A. The 4B2 cells were cultured in 48-well culture plates until subconfluency in DMEM containing 10% fetal bovine serum in a CO2 incubator according to a conventional manner. After the medium was switched to DMEM containing 2% fetal bovine serum, SNP (0.5 mM) was added thereto. […] Then, prior to the addition of SNP, Test Compound 13, 14, 17, 20, 24 or 25 (10 µM each) was added to the present medium and observations on cells were made after 24 hours.

SMILES | viability at 10 µM [%]
NCCCn1cc(C2=C(c3c[nH]c4ccccc34)C(=O)NC2=O)c2ccccc21 [Compound 17] | > 95
O=C1NC(=O)C(c2c[nH]c3ccccc23)=C1c1c[nH]c2ccccc12 [Compound 13] | > 95
CN1C(=O)C(c2c[nH]c3ccccc23)=C(c2c[nH]c3ccc(Cl)cc23)C1=O [Compound 24] | > 95
